Here are results for 3 compounds from paper PMC3961306, “Comparison of the Cancer Gene Targeting and Biochemical Selectivities of All Targeted Kinase Inhibitors Approved for Clinical Use” (PLoS ONE, 2014).

Common to all, as to experiment: Kinase profiling in a biochemical assay panel (mobility shift assays and ELISA), %-inhibition at 1 μM; selectivity entropy
(In an ELISA, binding on a coated surface is turned into a signal by an enzyme label.)

Assay [1] has as its target panel of more than 300 wild-type and mutant kinases (313 kinase panel) (Homo sapiens, UniProt P05129). As to conditions: kinase PKCγ; 1 μM.
The target of assay [2] is panel of more than 300 wild-type and mutant kinases (313 kinase panel) (Homo sapiens, UniProt P11362). The note with it: kinase FGFR1; compound at 1 μM.
Assay [3] has as its target panel of more than 300 wild-type and mutant kinases (313 kinase panel) (Homo sapiens, UniProt P16234, V561D). As to conditions: kinase PDGFRα(V561D); 1 μM.
Assay [4] addresses panel of more than 300 wild-type and mutant kinases (313 kinase panel) (Homo sapiens, UniProt P22455). The note with it: kinase FGFR4; compound at 1 μM.
For assay [5], the target named is panel of more than 300 wild-type and mutant kinases (313 kinase panel) (Homo sapiens, UniProt P24941). The note with it: 1 μM compound; for %-inhibition, CDK2/CycA2: kinase CDK2/CycA2; for %-inhibition, CDK2/CycE1: kinase CDK2/CycE1.
Assay [6] concerns the target panel of more than 300 wild-type and mutant kinases (313 kinase panel) (Homo sapiens, UniProt Q13233). The note with it: kinase MAP3K1; compound at 1 μM.
Assay [7] concerns the target T1, panel of more than 300 wild-type and mutant kinases (313 kinase panel) (Homo sapiens, UniProt Q13470).
T1 sequence (Q13470 1-666): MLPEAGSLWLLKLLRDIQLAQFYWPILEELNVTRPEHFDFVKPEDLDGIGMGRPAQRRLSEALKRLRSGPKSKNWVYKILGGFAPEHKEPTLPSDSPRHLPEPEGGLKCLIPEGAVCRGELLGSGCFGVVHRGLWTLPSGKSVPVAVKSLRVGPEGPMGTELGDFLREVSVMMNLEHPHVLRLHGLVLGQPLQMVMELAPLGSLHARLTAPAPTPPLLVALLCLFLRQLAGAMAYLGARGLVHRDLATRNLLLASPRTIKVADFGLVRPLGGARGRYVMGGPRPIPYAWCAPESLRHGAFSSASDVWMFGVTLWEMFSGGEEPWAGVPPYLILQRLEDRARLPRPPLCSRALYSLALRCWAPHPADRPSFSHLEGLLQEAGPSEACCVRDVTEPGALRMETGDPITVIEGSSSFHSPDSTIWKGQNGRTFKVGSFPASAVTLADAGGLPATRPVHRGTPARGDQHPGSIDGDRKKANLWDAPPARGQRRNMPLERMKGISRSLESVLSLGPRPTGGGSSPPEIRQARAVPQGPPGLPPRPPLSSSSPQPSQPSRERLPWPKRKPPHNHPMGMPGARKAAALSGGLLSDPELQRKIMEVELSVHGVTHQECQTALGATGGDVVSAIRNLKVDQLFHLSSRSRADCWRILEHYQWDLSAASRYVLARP

The target in assay [8] is panel of more than 300 wild-type and mutant kinases (313 kinase panel) (Homo sapiens, UniProt Q13557). The note with it: kinase CaMK2δ; 1 μM compound.
Assay [9] addresses T2, panel of more than 300 wild-type and mutant kinases (313 kinase panel) (Homo sapiens, UniProt Q15831).
T2 sequence (Q15831 1-433): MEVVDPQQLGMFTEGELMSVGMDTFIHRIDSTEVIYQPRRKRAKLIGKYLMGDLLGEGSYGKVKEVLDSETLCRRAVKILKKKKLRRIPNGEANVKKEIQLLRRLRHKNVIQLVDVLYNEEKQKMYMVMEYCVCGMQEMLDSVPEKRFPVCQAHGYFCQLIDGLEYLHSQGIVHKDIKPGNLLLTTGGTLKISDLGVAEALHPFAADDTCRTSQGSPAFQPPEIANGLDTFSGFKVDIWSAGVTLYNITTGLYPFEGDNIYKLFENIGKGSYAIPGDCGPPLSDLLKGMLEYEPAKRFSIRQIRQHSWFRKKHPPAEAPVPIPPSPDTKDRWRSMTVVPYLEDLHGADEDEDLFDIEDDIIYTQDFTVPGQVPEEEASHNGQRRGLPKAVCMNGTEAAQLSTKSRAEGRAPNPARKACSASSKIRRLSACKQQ
As to conditions: kinase LKB1; compound at 1 μM.

Assay [10] has as its target panel of more than 300 wild-type and mutant kinases (313 kinase panel) (Homo sapiens, UniProt Q5VT25). As to conditions: kinase MRCKα; 1 μM.
In assay [11] the target is panel of more than 300 wild-type and mutant kinases (313 kinase panel) (Homo sapiens, UniProt Q9HBH9). The note with it: kinase MNK2; 1 μM.

panel of more than 300 wild-type and mutant kinases (313 kinase panel) (Homo sapiens, UniProt P16234, V561D), sequence (P16234 24-1089 V561D): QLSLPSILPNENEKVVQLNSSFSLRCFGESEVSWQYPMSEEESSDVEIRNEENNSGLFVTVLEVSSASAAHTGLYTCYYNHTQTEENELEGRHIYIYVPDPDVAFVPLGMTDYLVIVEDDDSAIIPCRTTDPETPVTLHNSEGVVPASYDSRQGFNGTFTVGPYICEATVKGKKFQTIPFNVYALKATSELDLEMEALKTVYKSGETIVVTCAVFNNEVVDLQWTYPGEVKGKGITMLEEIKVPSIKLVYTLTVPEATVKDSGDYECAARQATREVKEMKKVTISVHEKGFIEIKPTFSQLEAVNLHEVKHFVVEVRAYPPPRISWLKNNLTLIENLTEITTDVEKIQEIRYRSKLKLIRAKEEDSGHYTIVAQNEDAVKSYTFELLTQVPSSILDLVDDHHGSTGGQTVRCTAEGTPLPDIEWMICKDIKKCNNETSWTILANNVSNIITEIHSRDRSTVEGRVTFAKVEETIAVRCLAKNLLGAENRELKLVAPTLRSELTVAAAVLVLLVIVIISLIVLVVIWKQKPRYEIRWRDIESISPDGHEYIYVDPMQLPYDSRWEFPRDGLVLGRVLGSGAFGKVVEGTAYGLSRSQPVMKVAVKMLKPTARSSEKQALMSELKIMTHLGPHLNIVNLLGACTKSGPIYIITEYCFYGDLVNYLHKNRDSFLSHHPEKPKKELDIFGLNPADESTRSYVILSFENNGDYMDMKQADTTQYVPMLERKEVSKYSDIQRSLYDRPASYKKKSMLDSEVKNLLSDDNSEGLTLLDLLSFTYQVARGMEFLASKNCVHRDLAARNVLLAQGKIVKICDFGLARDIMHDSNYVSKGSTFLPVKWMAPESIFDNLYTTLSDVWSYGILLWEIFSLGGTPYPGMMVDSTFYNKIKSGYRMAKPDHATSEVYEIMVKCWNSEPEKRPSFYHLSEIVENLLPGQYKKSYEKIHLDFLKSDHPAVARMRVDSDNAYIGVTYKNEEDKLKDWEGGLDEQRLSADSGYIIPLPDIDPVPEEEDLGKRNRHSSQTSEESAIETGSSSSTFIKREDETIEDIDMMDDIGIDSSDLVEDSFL
panel of more than 300 wild-type and mutant kinases (313 kinase panel) (Homo sapiens, UniProt P11362), sequence (P11362 22-822, stated change not applied): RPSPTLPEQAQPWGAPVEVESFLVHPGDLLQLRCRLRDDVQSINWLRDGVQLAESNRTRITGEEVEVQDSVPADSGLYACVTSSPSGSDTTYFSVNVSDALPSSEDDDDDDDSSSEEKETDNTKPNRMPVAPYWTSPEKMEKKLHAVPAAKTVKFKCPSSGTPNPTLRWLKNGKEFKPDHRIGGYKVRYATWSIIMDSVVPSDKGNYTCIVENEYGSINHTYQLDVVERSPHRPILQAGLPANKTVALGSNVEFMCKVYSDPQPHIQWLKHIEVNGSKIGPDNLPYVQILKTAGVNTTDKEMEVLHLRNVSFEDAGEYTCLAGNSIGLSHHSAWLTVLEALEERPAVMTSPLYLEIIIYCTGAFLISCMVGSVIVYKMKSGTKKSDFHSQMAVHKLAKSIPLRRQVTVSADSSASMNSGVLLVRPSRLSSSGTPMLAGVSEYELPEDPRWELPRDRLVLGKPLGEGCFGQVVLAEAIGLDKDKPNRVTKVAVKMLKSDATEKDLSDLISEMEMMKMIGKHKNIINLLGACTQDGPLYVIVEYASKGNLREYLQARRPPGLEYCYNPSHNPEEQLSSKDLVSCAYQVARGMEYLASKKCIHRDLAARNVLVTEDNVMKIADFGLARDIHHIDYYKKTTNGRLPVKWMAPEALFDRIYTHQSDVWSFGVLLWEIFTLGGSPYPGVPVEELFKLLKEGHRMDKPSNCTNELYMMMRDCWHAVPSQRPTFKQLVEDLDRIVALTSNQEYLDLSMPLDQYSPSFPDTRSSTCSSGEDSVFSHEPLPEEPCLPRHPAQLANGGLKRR
panel of more than 300 wild-type and mutant kinases (313 kinase panel) (Homo sapiens, UniProt Q13233), sequence (Q13233 whole entry, change not shown): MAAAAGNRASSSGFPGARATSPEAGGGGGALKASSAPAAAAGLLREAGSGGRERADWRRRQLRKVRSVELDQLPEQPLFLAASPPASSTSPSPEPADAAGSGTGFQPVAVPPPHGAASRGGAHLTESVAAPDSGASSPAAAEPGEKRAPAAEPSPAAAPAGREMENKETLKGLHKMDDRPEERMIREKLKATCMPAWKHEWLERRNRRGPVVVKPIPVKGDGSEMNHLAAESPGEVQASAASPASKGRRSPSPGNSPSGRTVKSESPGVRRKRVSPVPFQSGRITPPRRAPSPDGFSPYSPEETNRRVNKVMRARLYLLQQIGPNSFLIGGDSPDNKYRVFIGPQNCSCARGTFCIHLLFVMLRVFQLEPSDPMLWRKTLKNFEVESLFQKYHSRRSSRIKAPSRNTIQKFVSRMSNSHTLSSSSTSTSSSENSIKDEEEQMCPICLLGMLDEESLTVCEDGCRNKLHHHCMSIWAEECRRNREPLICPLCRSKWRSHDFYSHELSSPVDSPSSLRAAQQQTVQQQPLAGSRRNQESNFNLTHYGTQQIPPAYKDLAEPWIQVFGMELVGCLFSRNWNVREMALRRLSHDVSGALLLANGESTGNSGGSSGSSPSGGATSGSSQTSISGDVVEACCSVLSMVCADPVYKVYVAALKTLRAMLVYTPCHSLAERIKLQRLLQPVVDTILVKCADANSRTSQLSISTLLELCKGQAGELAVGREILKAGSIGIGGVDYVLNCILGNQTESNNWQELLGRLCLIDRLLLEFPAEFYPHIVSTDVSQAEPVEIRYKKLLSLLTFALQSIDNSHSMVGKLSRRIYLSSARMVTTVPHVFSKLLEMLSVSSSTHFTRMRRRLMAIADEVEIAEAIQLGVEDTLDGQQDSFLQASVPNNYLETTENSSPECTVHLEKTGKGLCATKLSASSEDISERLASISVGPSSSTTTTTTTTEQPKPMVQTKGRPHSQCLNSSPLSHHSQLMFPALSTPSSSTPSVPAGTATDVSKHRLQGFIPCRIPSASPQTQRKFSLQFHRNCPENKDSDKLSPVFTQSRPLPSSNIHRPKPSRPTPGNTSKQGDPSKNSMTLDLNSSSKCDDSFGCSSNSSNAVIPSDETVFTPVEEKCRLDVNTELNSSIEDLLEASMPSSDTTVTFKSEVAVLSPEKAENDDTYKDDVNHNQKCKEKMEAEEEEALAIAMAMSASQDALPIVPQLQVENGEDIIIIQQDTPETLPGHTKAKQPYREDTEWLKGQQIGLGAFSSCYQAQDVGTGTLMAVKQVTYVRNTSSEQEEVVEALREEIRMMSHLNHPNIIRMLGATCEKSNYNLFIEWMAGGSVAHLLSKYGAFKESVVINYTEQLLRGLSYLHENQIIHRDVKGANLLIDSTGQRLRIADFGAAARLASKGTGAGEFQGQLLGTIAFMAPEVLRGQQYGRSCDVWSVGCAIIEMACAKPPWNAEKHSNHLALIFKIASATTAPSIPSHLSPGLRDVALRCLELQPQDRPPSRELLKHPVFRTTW
panel of more than 300 wild-type and mutant kinases (313 kinase panel) (Homo sapiens, UniProt Q13557), sequence (Q13557 whole entry, stated change not applied): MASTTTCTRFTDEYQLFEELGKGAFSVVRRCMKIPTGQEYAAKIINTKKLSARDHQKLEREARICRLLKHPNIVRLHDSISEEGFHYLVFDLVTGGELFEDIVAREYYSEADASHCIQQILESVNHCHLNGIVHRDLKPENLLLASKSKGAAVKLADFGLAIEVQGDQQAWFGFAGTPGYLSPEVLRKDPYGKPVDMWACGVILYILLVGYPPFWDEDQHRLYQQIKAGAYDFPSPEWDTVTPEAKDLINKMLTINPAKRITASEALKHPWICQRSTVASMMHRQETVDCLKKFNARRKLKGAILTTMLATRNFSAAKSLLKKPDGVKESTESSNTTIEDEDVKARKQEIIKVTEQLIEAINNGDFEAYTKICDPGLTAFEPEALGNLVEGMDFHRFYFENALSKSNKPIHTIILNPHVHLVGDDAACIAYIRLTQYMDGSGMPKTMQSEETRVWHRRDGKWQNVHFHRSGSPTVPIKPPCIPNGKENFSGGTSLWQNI

Consider `CO[C@H]1C[C@@H]2CC[C@@H](C)[C@@](O)(O2)C(=O)C(=O)N2CCCC[C@H]2C(=O)O[C@H]([C@H](C)C[C@@H]2CC[C@@H](OC(=O)C(C)(CO)CO)[C@H](OC)C2)CC(=O)[C@H](C)/C=C(\C)[C@@H](O)[C@@H](OC)C(=O)[C@H](C)C[C@H](C)/C=C/C=C/C=C/1C` [temsirolimus], for which, in assay [1], the “%-inhibition of PKCγ” value is -11%. Further, the “%-inhibition of FGFR1” value in assay [2] is -6.47%. In [3], the “%-inhibition of PDGFRα(V561D)” value was -4%. In addition, the “%-inhibition of FGFR4” value in assay [4] is -4.51%. In addition, in assay [5], the “%-inhibition, CDK2/CycA2” value is given as -8% and the “%-inhibition, CDK2/CycE1” value is -1.35%. Besides, the “%-inhibition of MAP3K1” value in assay [6] is 6%. For the same compound, the “%-inhibition of TNK1” value in assay [7] (kinase TNK1, 1 μM) is -3%. The “%-inhibition, CaMK2δ” value in assay [8] is on record as -4%. Besides, in assay [9], the “%-inhibition of LKB1” value is given as -6.57%. Moreover, the “%-inhibition of MRCKα” value in [10] is on record as -1.53%. For the same compound, in assay [11], the “%-inhibition of MNK2” value is on record as -14%.
Consider `CC(=O)Nc1cccc(-n2c(=O)n(C3CC3)c(=O)c3c(Nc4ccc(I)cc4F)n(C)c(=O)c(C)c32)c1` [trametinib], for which the “%-inhibition of PKCγ” value in assay [1] is listed as 0.381%. For the same compound, the “%-inhibition of FGFR1” value in [2] was -1.45%. For the same compound, the “%-inhibition of PDGFRα(V561D)” value in [3] was found to be 2.22%. Further, the “%-inhibition of FGFR4” value in assay [4] is listed as -3%. For the same compound, in assay [5], the “%-inhibition, CDK2/CycA2” value came out at 24% and the “%-inhibition, CDK2/CycE1” value came to 2.59%. Moreover, in [6], the “%-inhibition of MAP3K1” value came to 99%. For the same compound, in assay [7] (1 µM), the “%-inhibition of TNK1” value is -2.58%. For the same compound, the “%-inhibition, CaMK2δ” value in assay [8] was -2.19%. In addition, the “%-inhibition of LKB1” value in [9] is 2.38%. Moreover, the “%-inhibition of MRCKα” value in assay [10] is -0.565%. Further, in assay [11], the “%-inhibition of MNK2” value is -11%.
As for `CCCS(=O)(=O)Nc1ccc(F)c(C(=O)c2c[nH]c3ncc(-c4ccc(Cl)cc4)cc23)c1F` [vemurafenib], the “%-inhibition of PKCγ” value in assay [1] is listed as -4.39%. Also, in [2], the “%-inhibition of FGFR1” value came out at 21%. Moreover, in assay [3], the “%-inhibition of PDGFRα(V561D)” value was determined as 56%. For the same compound, the “%-inhibition of FGFR4” value in [4] is on record as 5%. Besides, in assay [5], the “%-inhibition, CDK2/CycA2” value was -3% and the “%-inhibition, CDK2/CycE1” value is recorded as -5%. In addition, in assay [6], the “%-inhibition of MAP3K1” value is 13%. For the same compound, in assay [7] (kinase TNK1, 1 μM), the “%-inhibition of TNK1” value was 13%. In addition, the “%-inhibition, CaMK2δ” value in assay [8] is -0.235%. Further, the “%-inhibition of LKB1” value in assay [9] came out at 1.13%. Also, the “%-inhibition of MRCKα” value in assay [10] was 0.383%. The “%-inhibition of MNK2” value in assay [11] was determined as 27%.
